Laboratory results from paper PMC3948622, “Docking, Synthesis and Antiproliferative Activity of N-Acylhydrazone Derivatives Designed as Combretastatin A4 Analogues” (PLoS ONE, 2014).
≈ marks a conversion by molar mass, not a printed value. Like-named read-outs stand apart in the source and are kept apart here.

Experiments:
[1] = Aqueous solubility assay by ultraviolet spectroscopy; type: physicochemical; conditions: water (saturated aqueous solution), thermodynamic from solid, 2 hours at 37°C, read-out: Aq. Solubility
Description: Ultraviolet spectroscopy was performed using Femto spectrophotometer. The wavelength used in solubility assay was determined by the -λ max characteristic of each compound. Spectra were analyzed in Femtoscan software. Mass spectrometry was obtained by positive ionization at Bruker AmaZon SL and data analyzed in Compass 1.3.SR2 software.
The solubility assay was performed considering the absorptivity of compounds in ultraviolet spectroscopy as described by Schneider and coworkers. The assay wavelength was determined by the λ max characteristic of each compound.
Saturated aqueous solutions were prepared (0.01 mg/mL) and were kept under stirring for 2 hours at 37°C. The supernatant was filtered in 0,45 µm filters and transferred to a quartz cuvette (10 mm) to spectra acquisition.
Solubility was determined by linear regression using as graph plots, solutions prepared by dilutions of the original solution in methanol. The data were obtained in triplicates and the mean values were used to the graph plots. The correlation coefficient (R^2) values were between 0.9972 and 0.9999.

HL-60 (human leukemia) = test: In vitro antiproliferative MTT assay, HL-60; type: cell-based; conditions: for IC50: Homo sapiens, HL-60; for SI Lymphocyte/ HL-60: IC50 for human lymphocytes/IC50 for cancer cell line
Description: (§1) The antiproliferative activity of compounds 5a–r was determined based on an MTT assay and using CA-4 as standard against the tumor cell lines: HL-60 (human leukemia), SF-295 (human glioblastoma), MDA-MB435 (melanoma), PC3M (prostate cancer), OVCAR-8 (ovaries adenocarcinoma), NCI-H258M (pulmonary bronchio-alveolar carcinoma) and HCT-8 (adenocarcinoma ileocecal) (Table 2). To determine the selectivity index of compounds 5a–r, their antiproliferative profile was also evaluated toward human lymphocytes (Table 2).
(§2) Compounds (0.009–5 µg/mL) were tested for cytotoxic activity against selected cancer cell lines: SF-295 (glioblastoma), HCT-8 (colon), MDAMB-435 (melanoma), HL60 (leukemia), PC3M (prostate cancer), OVCAR-8 (ovaries adenocarcinoma) and NCI-H258M (pulmonary bronchio-alveolar carcinoma). All cell lines were kindly obtained from the National Cancer Institute (Bethesda, MD, USA).Tumor cell proliferation was quantified through the ability of living cells to reduce the yellow dye 3-(4,5-dimethyl-2-thiazolyl)-2,5-diphenyl-2H-tetrazolium bromide (MTT, Sigma Aldrich)) to a purple formazan product and absorbance was measured at 595 nm (DTX-880, Beckman Coulter).

[2] = test system: SF-295 (human glioblastoma); test: In vitro antiproliferative MTT assay, SF-295; type: cell-based; conditions: for IC50: Homo sapiens, SF-295, read-out: IC50 SF295; for SI Lymphocyte/ SF-295: IC50 for human lymphocytes/IC50 for cancer cell line
Description: as §1, §2

[3] = test system: HCT-8 (adenocarcinoma ileocecal); test: In vitro antiproliferative MTT assay, HCT-8; type: cell-based; conditions: for IC50: Homo sapiens, HCT-8; for SI Lymphocyte/ HCT-8: IC50 for human lymphocytes/IC50 for cancer cell line
Description: as §1, §2

MDA-MB435 (melanoma) [4] = test: In vitro antiproliferative MTT assay, MDA-MB435; type: cell-based; conditions: IC50 for human lymphocytes/IC50 for cancer cell line
Description: as §1, §2

PC3M (prostate cancer) = test: In vitro antiproliferative MTT assay, PC3M; type: cell-based; conditions: for IC50: Homo sapiens, PC-3M, Table 2, MTT; for SI Lymphocyte/ PC3M: IC50 for human lymphocytes/IC50 for cancer cell line
Description: as §1, §2

[5] = test system: OVCAR-8 (ovaries adenocarcinoma); test: In vitro antiproliferative MTT assay, OVCAR-8; type: cell-based; conditions: for IC50: Homo sapiens, OVCAR-8, Table 2, MTT; for SI Lymphocyte/ OVCAR-8: IC50 for human lymphocytes/IC50 for cancer cell line
Description: as §1, §2

[6] = test system: NCI-H358M (pulmonary bronchio-alveolar carcinoma); test: In vitro antiproliferative MTT assay, NCI-H358M; type: cell-based; conditions: for SI Lymphocyte/ NCI-H358M: IC50 for human lymphocytes/IC50 for cancer cell line; for IC50: NCI-H358M, Table 2, MTT
human lymphocytes = test: In vitro antiproliferative assay, human lymphocytes; type: cell-based; conditions: Lymphocyte, Table 2
Description: as §1
To investigate the selective cytotoxic activity of the N-acylhydrazones derivatives (5a–r), their antiproliferative potency was also assessed toward human lymphocytes and the results were compared to the data from CA-4 ([…]). The selectivity index (SI), which was the IC50 for human lymphocytes/IC50 for cancer cell lines after treatment with CA-4 and N-acylhydrazones (5a–r), was calculated, as depicted in Table 3. […] The best comparative selectivity indices (CA-4 vs 5b) were obtained from the SF-295 (SI = 13), MDA-MB435 (SI = 42) and NCI-H258M (SI = 9.5) tumor cell lines, and the worst results were found for OVCAR-8 (SI = 0.5).

MDA-MB435 (melanoma) [7] = test: In vitro antiproliferative MTT assay, MDA-MB435; type: cell-based; conditions: Homo sapiens, MDA-MB-435

SMILES	solubility at 2 h [1]	IC50 (HL-60 (human leukemia); Table 2, MTT)	SI Lymphocyte/ HL-60 (HL-60 (human leukemia))	IC50 ([2]; Table 2, MTT)	SI Lymphocyte/ SF-295 [2]	IC50 ([3]; Table 2, MTT)	SI Lymphocyte/ HCT-8 [3]	SI Lymphocyte/ MDA-MB345 (MDA-MB435 (melanoma) [4])	IC50 (PC3M (prostate cancer))	IC50 [5]	SI Lymphocyte/ NCI-H358M [6]	IC50 [6]	IC50 (human lymphocytes)	IC50 (MDA-MB435 (melanoma) [7]; Table 2, MTT)	SI Lymphocyte/ PC3M (PC3M (prostate cancer))	SI Lymphocyte/ OVCAR-8 [5]	melting point	other results
COc1ccc(/C=C\c2cc(OC)c(OC)c(OC)c2)cc1O [CA-4, Combretastatin A4]	5.44 µg/mL (≈ 17.2 µM)	2.1 nM	1.44±0.05	6.2 nM	0.44±0.04	5.3 nM	0.59±0.01	0.42±0.02	4.7 nM	0.37 nM	0.52±0.12	8 nM	3.2 nM	7.9 nM	–	–	–	–
COc1cc(C(=O)N/N=C/c2cccc(O)c2)cc(OC)c1OC [Compound 5c, (E)-N′-(3-hydroxybenzylidene)-3,4,5-trimetoxybenzohydrazide]	5.68 µg/mL (≈ 17.2 µM)	1630 nM	2.60±0.10	13000 nM	0.32±0.02	4300 nM	0.96±0.35	32.50±4.50	7510 nM	5780 nM	0.48±0.01	9500 nM	4480 nM	120 nM	0.58±0.01	0.80±0.005	227 to 229 °C	–
COc1cc(C(=O)N/N=C/c2ccc(O)cc2)cc(OC)c1OC [Compound 5d, (E)-N′-(4-hydroxybenzylidene)-3,4,5-trimetoxybenzohydrazide]	15 µg/mL (≈ 45.4 µM)	2630 nM	5.15±0.05	16000 nM	0.82±0.02	6540 nM	2.07±0.07	16.06±0.86	4570 nM	6180 nM	1.16±0.06	11800 nM	13400 nM	880 nM	2.96±0.86	2.22±0.02	189 °C	–
COc1cc(C(=O)N/N=C/c2ccc(O)c(O)c2)cc(OC)c1OC [Compound 5e, (E)-N′-(3,4-dihydroxybenzylidene)-3,4,5-trimetoxybenzohydrazide]	3.94 µg/mL (≈ 11.4 µM)	9300 nM	0.82±0.02	> 25000 nM	–	> 25000 nM	–	0.06±0.00	24400 nM	> 25000 nM	0.30±0.00	> 25000 nM	7360 nM	11800 nM	0.30±0.005	0.2±0.00	160 °C	–
COc1ccc(/C=N/NC(=O)c2cc(OC)c(OC)c(OC)c2)cc1OC [Compound 5g, (E)-N′-(3,4-dimethoxybenzylidene)-3,4,5-trimetoxybenzohydrazide]	1.94 µg/mL (≈ 5.18 µM)	4430 nM	4.10±0.10	18100 nM	0.99±0.005	7050 nM	2.50±0.005	8.41±0.09	12600 nM	7110 nM	1.80±0.005	10200 nM	18000 nM	2110 nM	1.44±0.04	2.55±0.05	190 to 191 °C	–
COc1cc(C(=O)N/N=C/c2ccc3c(c2)OCO3)cc(OC)c1OC [Compound 5h, (E)-N′-(benzo[d][1], [3]dioxol-5-ylmethylene)-3,4,5-trimetoxybenzohydrazide]	1.34 µg/mL (≈ 3.74 µM)	3070 nM	0.43±0.01	860 nM	1.47±0.02	55800 nM	0.02±0.002	13.17±1.37	1140 nM	1090 nM	0.62±0.02	2150 nM	1310 nM	110 nM	1.14±0.06	1.16±0.04	222 to 223 °C	–
COc1cc(/C=N/NC(=O)c2cc(OC)c(OC)c(OC)c2)cc(OC)c1OC [Compound 5i, (E)-3,4,5-trimethoxy-N′-(3,4,5-trimethoxybenzylidene)benzohydrazide]	0.0894 µg/mL (≈ 0.221 µM)	> 25000 nM	1	> 25000 nM	1	> 25000 nM	1	1	> 25000 nM	> 25000 nM	1	> 25000 nM	> 61800 nM	> 25000 nM	1	1	232 °C	–
COc1cc(C(=O)N/N=C/c2coc3ccccc3c2=O)cc(OC)c1OC [Compound 5j, (E)-3,4,5-trimethoxy-N′-((4-oxo-4H-chromen-3-yl)methylene)benzohydrazide]	0.783 µg/mL (≈ 2.05 µM)	> 25000 nM	1	> 25000 nM	1	23400 nM	2.8	1	> 25000 nM	> 25000 nM	1	> 25000 nM	> 65400 nM	> 25000 nM	1	1	205 to 206 °C	–
COc1cc(C(=O)N/N=C/c2ccc(C)cc2)cc(OC)c1OC [Compound 5o, (E)-3,4,5-trimethoxy-N′-(4-methylbenzylidene) benzohydrazide]	6.93 µg/mL (≈ 21.1 µM)	4.8 nM	1.59±0.09	93 nM	0.08±0.00	46 nM	0.15±0.005	0.21±0.01	12.7 nM	8.2 nM	0.009±0.001	891 nM	7.3 nM	35 nM	0.56±0.04	0.91±0.01	–	–
COc1cc(C(=O)N/N=C/c2ccc(Br)cc2)cc(OC)c1OC [Compound 5r, (E)-N′-(4-bromobenzylidene) - 3,4,5-trimetoxybenzohyidrazide]	0.262 µg/mL (≈ 0.666 µM)	10.9 nM	3.07±0.83	59 nM	0.49±0.05	22 nM	1.57±0.17	1.81	12.7 nM	7.3 nM	0.19±0.01	167 nM	31.4 nM	18.3 nM	2.29±0.20	4.02±0.28	–	–
COc1cc(C(=O)N(C)/N=C/c2ccccc2)cc(OC)c1OC [Compound 11, (E)-N′-benzylidene-3,4,5-trimethoxy-N-methylbenzohydrazide]	–	–	–	–	–	–	–	–	–	–	–	–	–	–	–	–	71 to 73 °C	IC50 (HL-60 (human leukemia); Table 4): 30 nM; IC50 ([2]; Table 4): 3800 nM; IC50 ([3]; Table 4): 540 nM; IC50 (MDA-MB435 (melanoma) [7]; Table 4): 1910 nM
